Results: PubChem BioAssay (NCI)
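Here, GI50 denotes the concentration required for 50% inhibition of growth. TGI denotes the concentration required for complete inhibition of growth.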

Tests used:
Assay in all cases: NCI-60 cell line screen, 384-well format
NCI/ADR-RES ovarian = system: NCI/ADR-RES ovarian
HL-60(TB) leukemia = system: HL-60(TB) leukemia
ACHN renal = system: ACHN renal
SR leukemia = system: SR leukemia
SN12C renal = system: SN12C renal
RXF 393 renal = system: RXF 393 renal
MCF7 breast = system: MCF7 breast
UO-31 renal = system: UO-31 renal
OVCAR-3 ovarian = system: OVCAR-3 ovarian
HCT-15 colon = system: HCT-15 colon
EKVX NSCLC = system: EKVX NSCLC
DU-145 prostate = system: DU-145 prostate
PC-3 prostate = system: PC-3 prostate
OVCAR-8 ovarian = system: OVCAR-8 ovarian
SF-268 CNS = system: SF-268 CNS
SNB-19 CNS = system: SNB-19 CNS
786-0 renal = system: 786-0 renal
SK-MEL-2 melanoma = system: SK-MEL-2 melanoma
HOP-62 NSCLC = system: HOP-62 NSCLC
K-562 leukemia = system: K-562 leukemia
MALME-3M melanoma = system: MALME-3M melanoma
SF-539 CNS = system: SF-539 CNS
SK-OV-3 ovarian = system: SK-OV-3 ovarian
NCI-H522 lung = system: NCI-H522 lung
LOX IMVI melanoma = system: LOX IMVI melanoma
RPMI-8226 leukemia = system: RPMI-8226 leukemia
SK-MEL-5 melanoma = system: SK-MEL-5 melanoma
KM12 colon = system: KM12 colon
NCI-H322M lung = system: NCI-H322M lung
A498 renal = system: A498 renal
M14 melanoma = system: M14 melanoma
HOP-92 NSCLC = system: HOP-92 NSCLC
HCC-2998 colon = system: HCC-2998 colon
HT29 colon = system: HT29 colon
OVCAR-5 ovarian = system: OVCAR-5 ovarian
MDA-MB-468 breast = system: MDA-MB-468 breast
NCI-H460 NSCLC = system: NCI-H460 NSCLC
UACC-62 melanoma = system: UACC-62 melanoma
U251 glioblastoma = system: U251 glioblastoma
IGROV1 ovarian = system: IGROV1 ovarian
SNB-75 CNS = system: SNB-75 CNS
NCI-H23 lung = system: NCI-H23 lung
COLO 205 colon = system: COLO 205 colon
NCI-H226 lung = system: NCI-H226 lung
T-47D breast = system: T-47D breast
HS 578T breast = system: HS 578T breast
SW-620 colon = system: SW-620 colon
CCRF-CEM leukemia = system: CCRF-CEM leukemia
MOLT-4 leukemia = system: MOLT-4 leukemia
SF-295 CNS = system: SF-295 CNS
OVCAR-4 ovarian = system: OVCAR-4 ovarian
MDA-MB-231 breast = system: MDA-MB-231 breast
SK-MEL-28 melanoma = system: SK-MEL-28 melanoma
BT-549 breast = system: BT-549 breast
MDA-MB-435 melanoma = system: MDA-MB-435 melanoma
UACC-257 melanoma = system: UACC-257 melanoma
CAKI-1 renal = system: CAKI-1 renal

`CC[C@@H](C(=O)[C@@H](C)[C@@H](O)[C@H](C)[C@@H]1O[C@@H]([C@@H](CC)C(=O)O)CC[C@@H]1C)[C@H]1O[C@]2(C=C[C@@H](O)[C@]3(CC[C@@](C)([C@H]4CC[C@](O)(CC)[C@H](C)O4)O3)O2)[C@H](C)C[C@@H]1C` gave a GI50 (NCI/ADR-RES ovarian) of 0.167 µM, a TGI (NCI/ADR-RES ovarian) of 2.11 µM and a GI50 (HL-60(TB) leukemia) of less than 0.01 µM. It also gave a TGI (HL-60(TB) leukemia) of less than 0.01 µM, a GI50 (ACHN renal) of 0.416 µM and a TGI (ACHN renal) of 13.6 µM. The GI50 (SR leukemia) was less than 0.01 µM, the TGI (SR leukemia) was less than 0.01 µM and the GI50 (SN12C renal) was less than 0.01 µM. The TGI (SN12C renal) was 1.76 µM, the GI50 (RXF 393 renal) was less than 0.01 µM and the TGI (RXF 393 renal) was less than 0.01 µM. For the same molecule, the GI50 (MCF7 breast) was less than 0.01 µM, the TGI (MCF7 breast) was 0.278 µM and the GI50 (UO-31 renal) was 0.157 µM. For the same molecule, the TGI (UO-31 renal) was 0.759 µM, the GI50 (OVCAR-3 ovarian) was less than 0.01 µM and the TGI (OVCAR-3 ovarian) was less than 0.01 µM. For the same molecule, the GI50 (HCT-15 colon) was 0.299 µM and the TGI (HCT-15 colon) was 1.19 µM.

`COc1ccc(F)cc1-c1ccnc2[nH]c(C3=CCN(C4CCC(CC(=O)O)CC4)CC3)cc12` (centres undefined) gave a GI50 (EKVX NSCLC) of 0.15 µM, a TGI (EKVX NSCLC) of 0.437 µM and a GI50 (DU-145 prostate) of 0.115 µM. It also gave a TGI (DU-145 prostate) of 1.82 µM, a GI50 (PC-3 prostate) of 0.124 µM and a TGI (PC-3 prostate) of 0.52 µM. The GI50 (NCI/ADR-RES ovarian) was 1.22 µM, the TGI (NCI/ADR-RES ovarian) was 4.59 µM and the GI50 (OVCAR-8 ovarian) was 0.0546 µM. For the same molecule, the TGI (OVCAR-8 ovarian) was 0.238 µM, the GI50 (HL-60(TB) leukemia) was 0.0151 µM and the TGI (HL-60(TB) leukemia) was 0.0325 µM. The GI50 (SF-268 CNS) was 0.0223 µM, the TGI (SF-268 CNS) was 0.0844 µM and the GI50 (SNB-19 CNS) was 0.0787 µM. It also gave a TGI (SNB-19 CNS) greater than 68.3 µM, a GI50 ([…]-0 renal) of 0.0824 µM and a TGI (786-0 renal) of 0.266 µM. It also gave a GI50 (SK-MEL-2 melanoma) of 0.0493 µM, a TGI (SK-MEL-2 melanoma) of 0.176 µM and a GI50 (HOP-62 NSCLC) of 0.0524 µM. For the same molecule, the TGI (HOP-62 NSCLC) was 0.194 µM, the GI50 (ACHN renal) was 0.156 µM and the GI50 (K-562 leukemia) was 0.136 µM. For the same molecule, the TGI (K-562 leukemia) was 0.521 µM, the GI50 (MALME-3M melanoma) was 0.063 µM and the TGI (MALME-3M melanoma) was 0.197 µM. For the same molecule, the GI50 (SF-539 CNS) was 0.104 µM, the TGI (SF-539 CNS) was 0.277 µM and the GI50 (SK-OV-3 ovarian) was 0.398 µM. It also gave a TGI (SK-OV-3 ovarian) greater than 25.9 µM, a GI50 (NCI-H522 lung) of 0.131 µM and a TGI (NCI-H522 lung) of 0.306 µM. For the same molecule, the GI50 (LOX IMVI melanoma) was 0.0336 µM, the TGI (LOX IMVI melanoma) was 0.141 µM and the GI50 (RPMI-8226 leukemia) was 0.0422 µM. It also gave a TGI (RPMI-8226 leukemia) of 0.138 µM, a GI50 (SK-MEL-5 melanoma) of 0.0487 µM and a TGI (SK-MEL-5 melanoma) of 0.156 µM. For the same molecule, the GI50 (KM12 colon) was 0.0289 µM, the TGI (KM12 colon) was 0.24 µM and the GI50 (NCI-H322M lung) was 0.113 µM. The TGI (NCI-H322M lung) was 0.367 µM, the GI50 (A498 renal) was 0.0864 µM and the GI50 (M14 melanoma) was 0.0872 µM. The TGI (M14 melanoma) was 0.304 µM, the GI50 (HOP-92 NSCLC) was 0.0941 µM and the GI50 (HCC-2998 colon) was 0.11 µM. For the same molecule, the TGI (HCC-2998 colon) was 0.432 µM, the GI50 (HT29 colon) was 0.184 µM and the TGI (HT29 colon) was 0.606 µM. For the same molecule, the GI50 (OVCAR-5 ovarian) was 0.115 µM, the TGI (OVCAR-5 ovarian) was 31.6 µM and the GI50 (MDA-MB-468 breast) was 0.0341 µM. For the same molecule, the TGI (MDA-MB-468 breast) was 0.118 µM, the TGI (SR leukemia) was less than 0.0141 µM and the GI50 (NCI-H460 NSCLC) was 0.0634 µM. The TGI (NCI-H460 NSCLC) was 0.183 µM, the GI50 (UACC-62 melanoma) was less than 0.0164 µM and the TGI (UACC-62 melanoma) was 0.0875 µM. For the same molecule, the GI50 (U251 glioblastoma) was 0.142 µM, the TGI (U251 glioblastoma) was 0.49 µM and the GI50 (IGROV1 ovarian) was 0.0771 µM. For the same molecule, the TGI (IGROV1 ovarian) was greater than 100 µM, the GI50 (SN12C renal) was 0.0597 µM and the TGI (SN12C renal) was 0.282 µM. It also gave a GI50 (SNB-75 CNS) of 0.0483 µM, a TGI (SNB-75 CNS) of 0.172 µM and a GI50 (NCI-H23 lung) of 0.0495 µM. The TGI (NCI-H23 lung) was 0.195 µM, the GI50 (RXF 393 renal) was 0.0183 µM and the TGI (RXF 393 renal) was 0.0537 µM. The GI50 (MCF7 breast) was 0.0311 µM, the TGI (MCF7 breast) was 12 µM and the GI50 (COLO 205 colon) was 0.0336 µM. For the same molecule, the TGI (COLO 205 colon) was 0.188 µM, the GI50 (NCI-H226 lung) was 0.116 µM and the TGI (NCI-H226 lung) was 0.451 µM. For the same molecule, the GI50 (T-47D breast) was 0.072 µM, the GI50 (HS 578T breast) was 0.019 µM and the TGI (HS 578T breast) was 0.0557 µM. The GI50 (SW-620 colon) was 0.0623 µM, the TGI (SW-620 colon) was 0.588 µM and the GI50 (CCRF-CEM leukemia) was 0.0218 µM. The TGI (CCRF-CEM leukemia) was 0.0578 µM, the GI50 (MOLT-4 leukemia) was 0.0366 µM and the TGI (MOLT-4 leukemia) was 0.121 µM. The GI50 (SF-295 CNS) was 0.171 µM, the TGI (SF-295 CNS) was 0.456 µM and the GI50 (UO-31 renal) was 0.102 µM. The TGI (UO-31 renal) was 0.691 µM, the GI50 (OVCAR-4 ovarian) was 0.158 µM and the TGI (OVCAR-4 ovarian) was 0.492 µM. It also gave a GI50 (MDA-MB-231 breast) of 0.0701 µM, a TGI (MDA-MB-231 breast) of 0.362 µM and a GI50 (SK-MEL-28 melanoma) of 0.0391 µM. For the same molecule, the TGI (SK-MEL-28 melanoma) was 0.202 µM, the GI50 (BT-549 breast) was 0.0534 µM and the TGI (BT-549 breast) was 0.145 µM. For the same molecule, the GI50 (MDA-MB-435 melanoma) was 0.13 µM, the TGI (MDA-MB-435 melanoma) was 0.411 µM and the GI50 (UACC-257 melanoma) was 0.138 µM. It also gave a TGI (UACC-257 melanoma) of 0.288 µM, a GI50 (OVCAR-3 ovarian) of 0.0334 µM and a TGI (OVCAR-3 ovarian) of 0.183 µM. The GI50 (CAKI-1 renal) was 0.111 µM, the TGI (CAKI-1 renal) was 0.465 µM and the GI50 (HCT-15 colon) was 0.0637 µM. For the same molecule, the TGI (HCT-15 colon) was 2.32 µM.
